# Assay results taken from patent US20240181000A1, “LGG-DERIVED PEPTIDES AND METHODS OF USE THEREOF” (Ohio State Innovation Foundation, priority 2021, published 2024).
# No end group written: not given here.
# Columns and labels:
# [1] = tested on: APEC O78 membrane; test: Transmission electron microscopy; assay type: cell-based, E. coli; details: 10×MIC, 3 h
# Method: Transmission electron microscopy: To visualize the effect of peptides (P1, P2, and P3) on APEC membrane, transmission electron microscopy (TEM) was performed as described previously. The peptide treatment was performed as described above. […] After incubation, cells were fixed overnight at room temperature with 3% glutaraldehyde & 2% paraformaldehyde), washed, and postfixed with 1% osmium tetroxide (OsO4). The cells were then dehydrated with graded ethanol series and embedding was performed using Embed 812 Kit (Electron Microscopy Sciences, PA). Ultrathin (70 nm) sections were prepared on formvar-carbon coated grids and stained with uranyl acetate and lead citrate. Microscopy was performed using Hitachi H-7500 microscope at MCIC. Untreated bacterial culture was used as control.
# [2] = tested on: biofilm protected APEC; test: MBEC-HTP assay; assay type: cell-based, E. coli; details: at MICs, 18 h; untreated 7.54 ± 0.07
# Method: MBEC™-HTP assay: To test the efficacy of the peptides (P1, P2, and P3) against biofilm protected APEC, Innovotech's MBEC Assay® was conducted as described previously(27). Briefly, 150 μL of 0.05 OD600 (5×10^7 CFU/mL) adjusted APEC suspension in LB media was aliquoted into the wells of MBEC™ device containing polystyrene pegs and incubated for 36 h on a rocker platform at 37° C. to allow the biofilm formation. After biofilm formation, the pegs were washed to remove loosely adherent planktonic bacteria and transferred to a new 96-well plate (challenge plate) containing peptides at MICs in 200 μL diluted (25%) LB media. The diluted LB media mimics the minimal media which stimulates biofilm formation and maintenance. The plate was incubated for 18 h at 37° C. with rotation at 150 rpm. Sterile media and DMSO (solvent) were used as controls. Following incubation, the MICs of peptides in challenge plate were recorded. The peptides exposed pegs were transferred to new 96-well plate containing PBS and sonicated for 30 mins to disrupt the biofilm. The sonicated suspensions were then ten-fold serially diluted and plated on LB agar plates to enumerate the biofilm protected bacteria and the minimum biofilm eradication concentration (MBEC) of peptides were determined. Three independent experiments were conducted.
# [3] = tested on: ST; test: Alanine scanning SAR, anti-Salmonella activity; assay type: cell-based, Salmonella enterica
# Method: Relative Importance was calculated using formula: (percent growth in analogue-percent growth in original peptide)/(percent growth in DMSO-treated control-percent growth in original peptide)×100.
# Structural-activity relationship (SAR) study: Structure activity relationship analysis was used to better determine the important amino acids required for Anti-Salmonella activity of P1 and P2. Alanine scanning libraries of P1 and P2 were synthesized from Genscript (Table 28; (www.genscript.com/alanine_scanning.html) and tested for inhibitory activity as described above. Relative importance [(percent growth in analogue-percent growth in original peptide)/(percent growth in DMSO-treated control-percent growth in original peptide)×100] was used to identify crucial amino acids of each amino acid residue of the peptide. Two independent experiments were conducted to ensure accuracy.
# [4] = tested on: APEC; assay type: in vivo, chickens
# Text: FIGS. 57A-57D show the APEC load of chickens (at 7 dpi [days post infection]) treated with either peptides P-1 or P-2.
# [5] = tested on: APEC O78; test: Efficacy of peptides in chickens (oral, twice a day); assay type: in vivo; details: for Reduction of APEC colonization in cecum: 7 dpi
# Method: Peptides were administered through orally twice a day from day 1 to day 7 either at 50 mg/kg or 100 mg/kg dose. On day 2, chickens were infected orally with Rif^γ APEC O78 (1-2×10^9 CFU/chicken). At day 9, chickens were euthanized, necropsied and cecum and internal organs (lung, liver, heart, and kidney) were processed for quantification of APEC load. The body weight of chickens was measured at day 9.
# Efficacy of peptides in chickens: Animal study was approved by The Ohio State University Institutional Animal Care and Use Committee (IACUC, protocol #2010 A00000149). Chickens were euthanized using CO2 following American Veterinary Medical Association (AVMA) guidelines. Standard animal husbandry practices were followed throughout the experiment. Feed and water were provided ad libitum. The efficacy of peptides (P1, P2, and P3) were assessed at 50 mg/kg and 100 mg/kg doses in two successive experiments using commercial broiler chickens (n=10/group) (Cobb & Ross; Case Farms Ohio Hatchery, Strasburg, OH). […] Briefly, peptides dissolved in water [5 mg (50 mg/kg) or 10 mg (100 mg/kg) in 100 μL] were administered orally twice a day from day 1 (one day before APEC infection) today 7 (5 days post-infection; dpi). On day 2, chickens were infected orally with rifampicin resistant (Rif) APEC O78(27) (1-2×10^9 CFU/chicken). At 7 dpi (day 9), chickens were euthanized, necropsied and cecum and internal organs (lung, liver, heart, and kidney) were assessed for APEC load by plating on MacConkey agar plates containing 50 μg/mL rifampicin. The body weight of chickens was measured at the day of necropsy (day 9). The positive (PC; infected but not treated) and negative (NC; non-infected and non-treated) control chickens were included in both experiments. The statistical significance (P<0.05) of treatment on reduction of APEC load and effect on body weight was calculated using one-way ANOVA followed by Tukey's post-hoc test. […] Bacteria were grown in LB media and MICs were determined as above against respective peptides.
substance,measurement,setting,value
"PDENK [Peptide P2, PDENK]",APEC membrane in TEM,[1],"membrane either sloughed (or shed), ruptured, or flaccid"
same,Biofilm protected APEC (log CFU/mL),[2],0.00 ± 0.00 log CFU/mL
same,Relative importance of Asparagine in P2,[3],35%
same,Relative importance of Aspartate in P2,[3],82%
same,Relative importance of Proline in P2,[3],zero relative importance
same,Relative importance of glutamic acid in P2,[3],77%
same,Relative importance of lysine in P2,[3],32%
same,Reduction of APEC colonization in cecum,"[4]; 50 mg/L in drinking water, 7 dpi",1.5 log CFU/gm
same,Bodyweight,[4]; in vivo,no significant effect
same,Reduction of APEC colonization in cecum,[5]; 50 mg/kg dose,0.9 logs
same,Number of chickens positive for APEC in internal organs,[5]; 100 mg/kg dose,reduced the number of chickens positive for APEC
same,Reduction of APEC colonization in cecum,[5]; 100 mg/kg dose,1.3 logs
